Experimental data reported in patent publication US8791123B2, “Substituted pyrazolo[1,5-a]pyrimidine compounds as Trk kinase inhibitors” (Array Biopharma, Inc., priority 2009, dated 2014).
Where two headings read alike, the source gives them in different places.

What was measured:
[1] = target: Human Jak2 kinase domain (Homo sapiens (Human), UniProt O60674); assay: Jak2 Inhibition Assay (Omnia kinase assay); assay type: biochemical; conditions: for IC50: read-out: Jak2 Enzyme IC50; for Jak2 Enzyme (% inhibition at 1000 nM): 1000 nM test compound
Protocol: The assays described in Examples C, D, E and F for the determination of JAK1, JAK2, JAK3 and Tyk2 kinase activity, respectively, utilized the Omnia® Kinase fluorescence peptide substrate-based technology (Invitrogen). […] The reactions were therefore read at excitation 360 nm and emission was measured at 485 nm every 50 seconds for 45 minutes using a PerkinElmer EnVision Multilabel Plate Reader.
The final buffer conditions for each of the JAK1, JAK2, JAK3 and Tyk2 assays were as follows: 25 mM HEPES, pH 7.4, 10 mM MgCl2, 0.01% Triton X-100 and 1 mM DTT.
Two-μL aliquots of these were transferred to a fresh plate for a ten-fold intermediate dilution with assay buffer. Five-μL aliquots of the diluted compounds were then transferred to 20-μL of assay mixtures described in Examples C, D, E and F for a final concentration of DMSO of 2%. […] For each plate, percent of control (POC) values were calculated for each well according to the following equation:
[formula] • where • Xmax=Average Uninhibited Controls • Xmin=Average Background IC50's were estimated from the POC's using a standard 4-parameter logistic model:
[formula] • where • A=Minimum Y (Bottom Asymptote) • B=Maximum Y (Top Asymptote) • C=EC50 • D=Slope Factor • X=Compound Concentration (nM) • Y=POC
The IC50 is defined as the concentration of inhibitor at which the POC equals 50 for the fitted curve.
Compounds of Formula I were screened for their ability to inhibit Jak2 using the general enzyme inhibition assay method, in which the assay mixture contained 500 μM ATP, 10 μM Omnia® Y7 peptide (Catalog # IVGN KNZ3071C, Invitrogen Corporation, Carlsbad, Calif.) and 4 nM Jak2 in a total volume of 20 μL. Human Jak2 kinase domain comprising amino acids 808-1132 was purchased from Invitrogen Corporation, Carlsbad, Calif. (catalog # IVGN PV4210).

[2] = target: TrkA (histidine-tagged recombinant human TrkA, cytoplasmic domain) (Homo sapiens (Human), UniProt P04629); assay: TrkA ELISA Assay; assay type: biochemical; conditions: Table 1; ELISA, 500 μM ATP; read-out: TrkA Enzyme IC50
Protocol: An enzyme-linked immunosorbant assay (ELISA) was used to assess TrkA kinase activity in the presence of inhibitors. Immulon 4HBX 384-well microtiter plates (Thermo part #8755) were coated with a 0.025 mg/mL solution of poly (Glu, Ala, Tyr; 6:3:1; Sigma P3899). […] The reaction mixture was removed from the plate by washing with PBS containing 0.1% (v/v) Tween 20. The phosphorylated reaction product was detected using 0.2 μg/mL of a phosphotyrosine specific monoclonal antibody (clone PY20) conjugated to horseradish peroxidase in conjunction with the TMB Peroxidase Substrate System (KPL). After the addition of 1M phosphoric acid, the chromogenic substrate color intensity was quantitated via absorbance at 450 nm.

[3] = Table 1, 500 μM ATP, >1000 nM when >50% inhibition not observed at 1000 nM

Sequence of TrkA (histidine-tagged recombinant human TrkA, cytoplasmic domain) (P04629 440-796): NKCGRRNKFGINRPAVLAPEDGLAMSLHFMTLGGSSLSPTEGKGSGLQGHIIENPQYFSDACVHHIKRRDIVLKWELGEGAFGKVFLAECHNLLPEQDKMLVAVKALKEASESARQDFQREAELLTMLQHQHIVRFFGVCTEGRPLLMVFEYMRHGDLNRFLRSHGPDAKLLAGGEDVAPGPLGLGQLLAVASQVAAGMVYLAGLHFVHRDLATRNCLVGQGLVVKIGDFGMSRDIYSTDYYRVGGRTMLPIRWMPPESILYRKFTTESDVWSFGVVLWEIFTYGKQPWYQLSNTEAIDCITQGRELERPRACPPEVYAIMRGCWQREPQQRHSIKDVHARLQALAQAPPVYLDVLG
Sequence of Human Jak2 kinase domain (O60674 808-1132): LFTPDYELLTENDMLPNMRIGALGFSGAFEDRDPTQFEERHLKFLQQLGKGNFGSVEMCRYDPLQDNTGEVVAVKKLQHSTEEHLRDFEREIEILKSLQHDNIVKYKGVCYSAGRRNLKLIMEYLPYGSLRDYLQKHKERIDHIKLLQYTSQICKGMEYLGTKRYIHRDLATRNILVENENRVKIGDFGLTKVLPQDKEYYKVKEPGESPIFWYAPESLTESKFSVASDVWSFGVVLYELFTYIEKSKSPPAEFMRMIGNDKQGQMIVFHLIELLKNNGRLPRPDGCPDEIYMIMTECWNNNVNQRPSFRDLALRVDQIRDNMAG

| SMILES | IC50 [1, 3] [nM] | IC50 [2] [nM] | IC50 [1] [nM] | Jak2 Enzyme (% inhibition at 1000 nM) ([1]; Table 1) |
| --- | --- | --- | --- | --- |
| C[C@@H](O)CNC(=O)c1cnn2ccc(N3CCCC3c3cc(F)ccc3F)nc12 (stereo in doubt) [Example 167, 5-((R)-2-(2,5-difluorophenyl)pyrrolidin-1-yl)-N-(2-hydroxypropyl)pyrazolo[1,5-a]pyrimidine-3-carboxamide] | > 1000 | 2.2 | – | – |
| CC(C)(C)NC(=O)c1cnn2ccc(N3CCC[C@@H]3c3cc(F)ccc3F)nc12 [Example 1, (R)—N-tert-butyl-5-(2-(2,5-difluorophenyl)pyrrolidin-1-yl)pyrazolo[1,5-a]pyrimidine-3-carboxamide] | > 1000 | 0.7 | – | – |
| O=C(Nc1ccccn1)c1cnn2ccc(N3CCC[C@@H]3c3cc(F)ccc3F)nc12 [Example 2, (R)-5-(2-(2,5-difluorophenyl)pyrrolidin-1-yl)-N-(pyridin-2-yl)pyrazolo[1,5-a]pyrimidine-3-carboxamide] | > 1000 | 0.7 | – | – |
| Cc1cccnc1NC(=O)c1cnn2ccc(N3CCC[C@@H]3c3cc(F)ccc3F)nc12 [Example 3, (R)-5-(2-(2,5-difluorophenyl)pyrrolidin-1-yl)-N-(3-methylpyridin-2-yl)pyrazolo[1,5-a]pyrimidine-3-carboxamide] | > 1000 | 2.3 | – | – |
| O=C(NCCN1CCOCC1)c1cnn2ccc(N3CCC[C@@H]3c3cc(F)ccc3F)nc12 [Example 4, (R)-5-(2-(2,5-difluorophenyl)pyrrolidin-1-yl)-N-(2-morpholinoethyl)pyrazolo[1,5-a]pyrimidine-3-carboxamide] | > 1000 | 0.95 | – | – |
| Cc1ccc(CNC(=O)c2cnn3ccc(N4CCC[C@@H]4c4cc(F)ccc4F)nc23)o1 [Example 5, (R)-5-(2-(2,5-difluorophenyl)pyrrolidin-1-yl)-N-((5-methylfuran-2-yl)methyl)pyrazolo[1,5-a]pyrimidine-3-carboxamide] | > 1000 | 0.95 | – | – |
| Cn1ccc(NC(=O)c2cnn3ccc(N4CCC[C@@H]4c4cc(F)ccc4F)nc23)n1 [Example 6, (R)-5-(2-(2,5-difluorophenyl)pyrrolidin-1-yl)-N-(1-methyl-1H-pyrazol-3-yl)pyrazolo[1,5-a]pyrimidine-3-carboxamide] | > 1000 | 1.55 | – | – |
| O=C(N[C@H]1CC[C@H](O)CC1)c1cnn2ccc(N3CCC[C@@H]3c3cc(F)ccc3F)nc12 [Example 7, 5-((R)-2-(2,5-difluorophenyl)pyrrolidin-1-yl)-N-((trans)-4-hydroxycyclohexyl)pyrazolo[1,5-a]pyrimidine-3-carboxamide] | 107 | 0.45 | – | – |
| CC(C)(CO)NC(=O)c1cnn2ccc(N3CCC[C@@H]3c3cc(F)ccc3F)nc12 [Example 8, (R)-5-(2-(2,5-difluorophenyl)pyrrolidin-1-yl)-N-(1-hydroxy-2-methylpropan-2-yl)pyrazolo[1,5-a]pyrimidine-3-carboxamide] | > 1000 | 1.1 | – | – |
| CC(C)(CN1CCOCC1)NC(=O)c1cnn2ccc(N3CCC[C@@H]3c3cc(F)ccc3F)nc12 [Example 9, (R)-5-(2-(2,5-difluorophenyl)pyrrolidin-1-yl)-N-(2-methyl-1-morpholinopropan-2-yl)pyrazolo[1,5-a]pyrimidine-3-carboxamide] | > 1000 | 3.45 | – | – |
| CNC(=O)c1cnn2ccc(N3CCC[C@@H]3c3cc(F)ccc3F)nc12 [Example 10, (R)-5-(2-(2,5-difluorophenyl)pyrrolidin-1-yl)-N-methylpyrazolo[1,5-a]pyrimidine-3-carboxamide] | > 1000 | 1.05 | – | – |
| O=C(O)CC1CCN(C(=O)c2cnn3ccc(N4CCC[C@@H]4c4cc(F)ccc4F)nc23)CC1 [Example 12, (R)-2-(1-(5-(2-(2,5-difluorophenyl)pyrrolidin-1-yl)pyrazolo[1,5-a]pyrimidine-3-carbonyl)piperidin-4-yl)acetic acid] | – | 238 | > 1000 | – |
| O=C(NC1CC1)c1cnn2ccc(N3CCC[C@@H]3c3cc(F)ccc3F)nc12 [Example 13, (R)—N-cyclopropyl-5-(2-(2,5-difluorophenyl)pyrrolidin-1-yl)pyrazolo[1,5-a]pyrimidine-3-carboxamide] | > 1000 | 0.5 | – | – |
| O=C(NC1CCC1)c1cnn2ccc(N3CCC[C@@H]3c3cc(F)ccc3F)nc12 [Example 14, (R)—N-cyclobutyl-5-(2-(2,5-difluorophenyl)pyrrolidin-1-yl)pyrazolo[1,5-a]pyrimidine-3-carboxamide] | 470 | 0.55 | – | – |
| O=C(NC1(CO)CC1)c1cnn2ccc(N3CCC[C@@H]3c3cc(F)ccc3F)nc12 [Example 16, (R)-5-(2-(2,5-difluorophenyl)pyrrolidin-1-yl)-N-(1-(hydroxymethyl)cyclopropyl)pyrazolo[1,5-a]pyrimidine-3-carboxamide] | > 1000 | 0.9 | – | – |
| CC(C)(O)CNC(=O)c1cnn2ccc(N3CCC[C@@H]3c3cc(F)ccc3F)nc12 [Example 17, (R)-5-(2-(2,5-difluorophenyl)pyrrolidin-1-yl)-N-(2-hydroxy-2-methylpropyl)pyrazolo[1,5-a]pyrimidine-3-carboxamide] | > 1000 | 2.15 | – | – |
| O=C(c1cnn2ccc(N3CCC[C@@H]3c3cc(F)ccc3F)nc12)N1CC[C@H](O)C1 [Example 18, (5-((R)-2-(2,5-difluorophenyl)pyrrolidin-1-yl)pyrazolo[1,5-a]pyrimidin-3-yl)((S)-3-hydroxypyrrolidin-1-yl)methanone] | > 1000 | 38.3 | – | – |
| O=C(c1cnn2ccc(N3CCC[C@@H]3c3cc(F)ccc3F)nc12)N1CC[C@@H](O)C1 [Example 19, (5-((R)-2-(2,5-difluorophenyl)pyrrolidin-1-yl)pyrazolo[1,5-a]pyrimidin-3-yl)((R)-3-hydroxypyrrolidin-1-yl)methanone] | > 1000 | 74.2 | – | – |
| O=C(N[C@H]1CC[C@@H](O)CC1)c1cnn2ccc(N3CCC[C@@H]3c3cncc(F)c3)nc12 [Example 100, 5-((R)-2-(5-fluoropyridin-3-yl)pyrrolidin-1-yl)-N-((cis)-4-hydroxycyclohexyl)pyrazolo[1,5-a]pyrimidine-3-carboxamide] | – | – | – | (13.8) % |
| O=C(NCCN1CCC(O)CC1)c1cnn2ccc(N3CCC[C@@H]3c3cc(F)ccc3F)nc12 [Example 170, 5-((R)-2-(2,5-difluorophenyl)pyrrolidin-1-yl)-N-(2-(4-hydroxypiperidin-1-yl)ethyl)pyrazolo[1,5-a]pyrimidine-3-carboxamide] | > 1000 | – | – | – |
| Cc1ncc(F)cc1[C@H]1CCCN1c1ccn2ncc(C(=O)N[C@H]3CC[C@@H](O)CC3)c2n1 [Example 195, 5-((R)-2-(5-fluoro-2-methylpyridin-3-yl)pyrrolidin-1-yl)-N-((cis)-4-hydroxycyclohexyl)pyrazolo[1,5-a]pyrimidine-3-carboxamide] | – | – | – | (16.2) % |
| COc1ncc(F)cc1[C@H]1CCCN1c1ccn2ncc(C(=O)Nc3cc(C)n[nH]3)c2n1 [Example 240, (R)-5-(2-(5-fluoro-2-methoxypyridin-3-yl)pyrrolidin-1-yl)-N-(3-methyl-1H-pyrazol-5-yl)pyrazolo[1,5-a]pyrimidine-3-carboxamide] | – | 11.3 | – | – |
| COc1ncc(F)cc1[C@H]1CCCN1c1ccn2ncc(C(=O)Nc3ccn(C)n3)c2n1 [Example 241, (R)-5-(2-(5-fluoro-2-methoxypyridin-3-yl)pyrrolidin-1-yl)-N-(1-methyl-1H-pyrazol-3-yl)pyrazolo[1,5-a]pyrimidine-3-carboxamide] | – | 21.8 | – | – |
| COc1ncc(F)cc1[C@H]1CCCN1c1ccn2ncc(C(=O)Nc3cc(C4CC4)n[nH]3)c2n1 [Example 242, (R)-N-(3-cyclopropyl-1H-pyrazol-5-yl)-5-(2-(5-fluoro-2-methoxypyridin-3-yl)pyrrolidin-1-yl)pyrazolo[1,5-a]pyrimidine-3-carboxamide] | – | 8.9 | – | – |
| COc1ncc(F)cc1[C@H]1CCCN1c1ccn2ncc(C(=O)Nc3ccn(C(C)C)n3)c2n1 [Example 244, (R)-5-(2-(5-fluoro-2-methoxypyridin-3-yl)pyrrolidin-1-yl)-N-(1-isopropyl-1H-pyrazol-3-yl)pyrazolo[1,5-a]pyrimidine-3-carboxamide] | – | 38.2 | – | – |
